Legend:
Type in all cases: cell-based
[1] = system: hippocampal neurons cultured from wild-type mice; test: Quantification of growth cone collapse in cultured neurons from wild-type mice (U18666A-induced); settings: Y-27632 10 μM pre-incubation for 2 h, then 5 μM U18666A for 2 min, DIV4; n=100 growth cones
Description: (§1) Neuronal cultures. Cortical and hippocampal neurons were prepared from npc1+/+ and npc1−/− embryos at embryonic day 18 (E18); time-pregnant wild-type BALB/c or npc1+/− mice were obtained either from Charles River Laboratories (San Diego, Calif.) or from our breeding colony respectively. Neurons were cultured in NeuroBasal (GIBCO, Carlsbad, Calif.) with 10% bovine serum albumin (BSA), 2% B27, and 1% glutamine for three to four days before being used.
(§2) Treatment. For primary cultured neurons, chemicals (U18666A and inhibitors of various enzymes) were first dissolved in 10% DMSO before being diluted in cultured medium; final DMSO concentration was lower than 0.01%. For in vivo treatment, hydroxyfasudil monohydrochloride (Sigma) was dissolved in double-distilled H2O and injected subcutaneously at 10 mg/kg, twice a day from postnatal day 7 to day 28.
(§3) Immunofluorescent staining. Hippocampal neurons were fixed with 4% paraformaldehyde in phosphate buffer (PB; pH 7.4) for 15 min. After washing with 1× phosphate buffer saline (PBS), cells were permeabilized with 0.05% Triton X-100 in 1×PBS for 15 min, and incubated with blocking buffer (3% BSA, 0.02% Triton X-100 in 1×PBS) for 15 min before being probed with primary antibodies. The following primary antibodies were used: anti-E6AP (1:1000), anti-phospho-p53 (1:250), anti-phospho-4EBP1 (1:1000), antiphospho-Mdm2 antibody (1:250), anti-phospho-p38 antibody (1:250), anti-RhoA antibody (1:1500). All primary antibodies were diluted in blocking buffer and incubated at 4° C. for 18 h. After six washes (6×10 min) with 1×PBS at room temperature, cells were incubated with secondary antibodies, Alexa488-anti-rabbit (1:500) or Alexa594-anti-mouse (1:500); both antibodies were diluted in blocking buffer and incubated at room temperature for one h. Cells were then washed with 1×PBS (6×10 min) and sealed with mounting medium (Vectashield; Vector Laboratories, Inc., Burlingame, Calif.) containing 49,69-diamidino-2-phenylindole (DAPI) to stain nuclei. Immunofluorescent signal was detected with a Nikon confocal microscope (Nikon TE 2000U with DEclipse C1 system; Melville, N.Y.).
(§4) Quantification of growth cone morphology and immunoreactivity. Confocal images were taken using the 60× oil-immersion objective. About 20-30 images were randomly selected from each culture dish (20 mm in diameter); at least four to six dishes from three to six independent culture preparations/experiments were used for each experimental group. Within an experiment, cultures used for different experimental groups and designed for comparison were stained simultaneously and imaged with the same acquisition parameters. Quantification was done blindly by multiple researchers. Growth cones with less than 1 filopodium were considered collapsed; 100 growth cones were-quantified for each experimental group. Image J software was used to quantify immunoreactivity intensity of p-p53 and RhoA in axons and growth cones; the “total integrated density” was used instead of “average intensity”. Briefly, individual growth cones were outlined manually and the total integrated density was measured using Image J software. For quantification of immunoreactivity in axons, a 50 μm fragment of axons from the neck of growth cones towards the cell body was selected and integrated density measured.

[2] = system: axons and growth cones of hippocampal neurons from wild-type mice; test: Immunofluorescence quantification of protein levels in axons and growth cones of wild-type hippocampal neurons
Description: as §1, §2, §3, §4

[3] = system: cortical neurons cultured from wild-type mice; test: Immunoblotting analysis of various proteins in cultured cortical neurons (U18666A-induced changes); settings: pre-treatment with Y-27632
Description: as §1, §2
Immunoprecipitation and immunoblotting procedures. For immunoprecipitation, cultured cortical neurons were lysed in lysis buffer [0.05 M Tris base, 0.9% NaCl, pH 7.6, and 0.5% Triton X-100 plus Protease Inhibitors Cocktail (1:100; EMD Biosciences) and phosphatase inhibitor cocktails (1:500; Sigma)]. Lysates were centrifuged at 16,000×g for 30 min at 4° C. Supernatant were then cleared with a mixture of protein A/Gagarose beads (each 50%) for 1 h at 4 uC, and after a brief spin, pellets were discarded. A small portion of the supernatants was used as input. The reminder of the supernatant was immunoprecipitated overnight with control IgG or Tau1 antibodies. Immunoprecipitates were captured by incubation with protein A/G-agarose beads for 3 h at 4° C. After several washes, the beads were resuspended in 2×SDS sample buffer [4% sodium dodecyl sulfate (SDS), 100 mM Tris-HCl (pH 6.8), 10% b-mercaptoethanol, 20% glycerol and 0.2% bromophenol blue] and boiled for 10 min. The resulting proteins were separated by SDS-PAGE, and transferred to polyvinylidene difluoride membranes for immunoblotting using previously described protocols.
Because the p-p53Δ and p-p53 bands were very close in immunoblots and the former was the predominant band, p-p53Δ levels were used as an index of p-p53 degradation. Immunoprecipitation was used to determine whether p-p53 truncation affected its association with the microtubule-associated protein tau, a protein that is abundantly and exclusively expressed in axons. p53 labeled by either anti-p-p53 or anti-p53 antibodies was immunoprecipitated by Tau1 antibodies (FIG. 5B).
Increased levels of p-p53Δ and p-Mdm2 were quantified using the ImageJ program (National Institutes of Health, Bethesda, Md.). The quantified levels are contained in Table 1 below.

[4] = system: hippocampal neurons cultured from npc1−/− mice; test: Growth cone collapse in hippocampal neurons cultured from npc1−/− mice; settings: 10 μM Y-27632 for 18 h at DIV3; vehicle 80±2%; n=100 growth cones
Description: as §1
(§5) Treatment. For primary cultured neurons, chemicals (U18666A and inhibitors of various enzymes) were first dissolved in 10% DMSO before being diluted in cultured medium; final DMSO concentration was lower than 0.01%. […]
(§6) Immunofluorescent staining. […] Immunofluorescent signal was detected with a Nikon confocal microscope (Nikon TE 2000U with DEclipse C1 system; Melville, N.Y.).
(§7) Quantification of growth cone morphology and immunoreactivity. […] Quantification was done blindly by multiple researchers. Growth cones with less than 1 filopodium were considered collapsed; 100 growth cones were-quantified for each experimental group. Image J software was used to quantify immunoreactivity intensity of p-p53 and RhoA in axons and growth cones; the “total integrated density” was used instead of “average intensity”. Briefly, individual growth cones were outlined manually and the total integrated density was measured using Image J software. […]

[5] = system: hippocampal neurons cultured from npc1−/− mice; test: p-p53 immunoreactivity in axons and growth cones of npc1−/− hippocampal neurons; settings: 10 μM Y-27632 for 18 h at DIV3
Description: as §1, §5, §6, §7

- effect on U18666A-induced increase in levels of phosphorylated LIM kinase (immunoblot) [3]: significantly reduced
Compound: C[C@@H](N)[C@H]1CC[C@H](C(=O)Nc2ccncc2)CC1.Cl.Cl [Y-27632, trans-4-[(1R)-1-Aminoethyl]-N-4-pyridinylcyclohexanecarboxamide dihydrochloride]
- growth cone collapse [1]: 41±1%
- effect on U18666A-induced decrease in p-p53 immunoreactivity in axons and growth cones ([2]; Y-27632 10 μM 2 h pretreatment, 5 μM U18666A 2 min): reversed
- effect on U18666A-induced reduction of "mutant" p53 in axons and growth cones ([2]; pre-incubation with 10 μM Y27632): blocked
- effect on U18666A-induced increase in p38 and Mdm2 phosphorylation, protein ubiquitination and RhoA levels (immunoblot) [3]: did not block
- effect on U18666A-induced p-p53 truncation (immunoblot) [3]: significantly reduced
- growth cone collapse [4]: 48±1%
- p-p53 immunoreactivity in axons and growth cones [5]: increased

Reference: patent US20120010196A1, “METHODS OF TREATING NEURODEGENERATIVE DISORDERS AND DISEASES” (priority 2010, published 2012)
